Values joined by “and” are separate entries in the source; they are usually repeats but may differ in a detail not shown here. Equal entries are not always repeated. Toxic doses and inconclusive results are not listed. Rule as the data show it: active = T/C of 150% or more; inactive = T/C below 125%.
System: L1210 leukemia ip in BDF1 mice, survival T/C
Assay: NCI In Vivo Anticancer Drug Screen. Data for tumor model L1210 Leukemia (intraperitoneal) in B6D2F1 (BDF1) mice
Conditions: endpoint: mean survival time, higher = longer survival
Procedure, shortened: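 Read-out is survival time, reported as the treated-group measurement over the vehicle-control measurement.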

[1] = dose: 200.0 mg/kg/injection, schedule: Q01DX001 (ip), vehicle: saline
[2] = dose: 100.0 mg/kg/injection, schedule: Q01DX009 (ip), vehicle: Klucel (hydroxypropylcellulose) (HPC)
[3] = dose: 100.0 mg/kg/injection, schedule: Q01DX001 (ip), vehicle: other
[4] = dose: 200.0 mg/kg/injection, schedule: Q01DX001 (ip), vehicle: other
[5] = dose: 400.0 mg/kg/injection, schedule: Q01DX001 (ip), vehicle: other

Measured: T/C

Cc1ccc(C(=O)CCCN2CCOCC2)c(C)c1
inactive: dose: 5.0 mg/kg/injection, schedule: Q01DX001 (ip), vehicle: saline 105 % of control | dose: 10.0 mg/kg/injection, schedule: Q01DX001 (ip), vehicle: saline 97 % of control | dose: 20.0 mg/kg/injection, schedule: Q01DX001 (ip), vehicle: saline 94 % of control | dose: 40.0 mg/kg/injection, schedule: Q01DX001 (ip), vehicle: saline 108 % of control | dose: 80.0 mg/kg/injection, schedule: Q01DX001 (ip), vehicle: saline 100 % of control | [1] 95 % of control

COC(=O)c1cn2ccc(C(=O)c3ccccc3)cc2c1C(=O)OC
inactive: dose: 100.0 mg/kg/injection, schedule: Q04DX002 (ip), vehicle: Klucel (hydroxypropylcellulose) (HPC) 95 % of control | dose: 200.0 mg/kg/injection, schedule: Q04DX002 (ip), vehicle: Klucel (hydroxypropylcellulose) (HPC) 106 % of control | dose: 400.0 mg/kg/injection, schedule: Q04DX002 (ip), vehicle: Klucel (hydroxypropylcellulose) (HPC) 98 % of control

NCCCNCCNCCCN
inactive: dose: 100.0 mg/kg/injection, schedule: Q04DX002 (ip), vehicle: saline 98 % of control | dose: 200.0 mg/kg/injection, schedule: Q04DX002 (ip), vehicle: saline 98 % of control

O=C(COCC(=O)N/N=C/c1ccccc1Cl)N/N=C\c1ccccc1Cl
inactive: [2] 93 % of control | dose: 200.0 mg/kg/injection, schedule: Q01DX009 (ip), vehicle: Klucel (hydroxypropylcellulose) (HPC) 95 % of control

C=C(C)C(=O)OC1CC23OC2CC(COC3O)C2OC2C2OC(=O)C(=C)C12 (configuration not stated)
inactive: dose: 6.25 mg/kg/injection, schedule: Q01DX009 (ip), vehicle: acetone 98 % of control | dose: 12.5 mg/kg/injection, schedule: Q01DX001 (ip), vehicle: acetone 106 % of control | dose: 12.5 mg/kg/injection, schedule: Q01DX009 (ip), vehicle: acetone 104 % of control | dose: 12.5 mg/kg/injection, schedule: Q04DX003 (ip), vehicle: acetone 90 % of control | dose: 25.0 mg/kg/injection, schedule: Q01DX001 (ip), vehicle: acetone 106 % of control | dose: 25.0 mg/kg/injection, schedule: Q04DX003 (ip), vehicle: acetone 104 % of control | dose: 50.0 mg/kg/injection, schedule: Q01DX001 (ip), vehicle: acetone 109 % of control

OC1CC2(Cl)C(Cl)=C(Cl)C1(Cl)C2(Cl)Cl (configuration not stated)
inactive: dose: 75.0 mg/kg/injection, schedule: Q01DX001 (ip), vehicle: carboxymethylcellulose (CMC) 87 % of control | dose: 150.0 mg/kg/injection, schedule: Q01DX001 (ip), vehicle: carboxymethylcellulose (CMC) 95 % of control | dose: 300.0 mg/kg/injection, schedule: Q01DX001 (ip), vehicle: carboxymethylcellulose (CMC) 93 % of control

CCCCCCCC(C)NCCCO (configuration not stated)
inactive: dose: 75.0 mg/kg/injection, schedule: Q01DX001 (ip), vehicle: saline 90 % of control

CC(C)CC(=O)/C(CC(C)C)=N/O
inactive: dose: 50.0 mg/kg/injection, schedule: Q01DX001 (ip), vehicle: saline 96 % of control | dose: 100.0 mg/kg/injection, schedule: Q01DX001 (ip), vehicle: saline 104 % of control | [1] 96 % of control | dose: 400.0 mg/kg/injection, schedule: Q01DX001 (ip), vehicle: saline 96 % of control

CN(C=O)C(=S)[S][Sb]([S]C(=S)Nc1ccc(S(=O)(=O)Nc2ccc(N=Nc3ccccc3)cc2)cc1)[S]C(=S)N(C)C=O
inactive: dose: 100.0 mg/kg/injection, schedule: Q01DX001 (ip), vehicle: steriod suspending solution 106 % of control | dose: 200.0 mg/kg/injection, schedule: Q01DX001 (ip), vehicle: steriod suspending solution 90 % of control

Cc1cc(O)c(N=Nc2ccc(C(=O)O)cc2)cc1C
inactive: dose: 25.0 mg/kg/injection, schedule: Q04DX003 (ip), vehicle: carboxymethylcellulose (CMC) 108 % of control | dose: 50.0 mg/kg/injection, schedule: Q04DX003 (ip), vehicle: carboxymethylcellulose (CMC) 103 % of control | [3] 102 % of control | dose: 100.0 mg/kg/injection, schedule: Q04DX003 (ip), vehicle: carboxymethylcellulose (CMC) 101 % of control | [4] 96 % of control | dose: 200.0 mg/kg/injection, schedule: Q04DX003 (ip), vehicle: carboxymethylcellulose (CMC) 101 % of control | [5] 93 % of control | dose: 400.0 mg/kg/injection, schedule: Q04DX003 (ip), vehicle: carboxymethylcellulose (CMC) 95 % of control

CC[C@@]1(O)C[C@H](OC2CC(N(C)C)C(O)C(C)O2)c2c(O)c3c(c(O)c2[C@H]1OC1CC(N(C)C)C(O)C(C)O1)C(=O)c1cccc(O)c1C3=O (some centres not stated)
inactive: dose: 0.5 mg/kg/injection, schedule: Q01DX009 (ip), vehicle: saline 110 % of control

CC(CN)OC12CC3CC(CC(C3)C1)C2 (configuration not stated)
inactive: dose: 5.0 mg/kg/injection, schedule: Q04DX002 (ip), vehicle: saline 91 % of control | dose: 10.0 mg/kg/injection, schedule: Q01DX009 (ip), vehicle: saline 94 % of control | dose: 10.0 mg/kg/injection, schedule: Q04DX002 (ip), vehicle: saline 102 % of control | dose: 20.0 mg/kg/injection, schedule: Q01DX009 (ip), vehicle: saline 101 % of control | dose: 20.0 mg/kg/injection, schedule: Q04DX002 (ip), vehicle: saline 94 % of control | dose: 40.0 mg/kg/injection, schedule: Q01DX009 (ip), vehicle: saline 101 % of control | dose: 40.0 mg/kg/injection, schedule: Q04DX002 (ip), vehicle: saline 95 % of control and 91 % of control

C=C(C)C#CC(O)(C(=O)OCC)C1CCCCC1 (configuration not stated)
inactive: [3] 98 % of control | [4] 109 % of control | [5] 102 % of control

CN(C)C(C)(C)CO
inactive: dose: 100.0 mg/kg/injection, schedule: Q01DX009 (ip), vehicle: saline 98 % of control | dose: 100.0 mg/kg/injection, schedule: Q04DX003 (ip), vehicle: saline 96 % of control | dose: 200.0 mg/kg/injection, schedule: Q01DX009 (ip), vehicle: saline 98 % of control | dose: 200.0 mg/kg/injection, schedule: Q04DX003 (ip), vehicle: saline 98 % of control | dose: 400.0 mg/kg/injection, schedule: Q04DX003 (ip), vehicle: saline 101 % of control

CP(c1ccccc1)c1ccccc1
inactive: dose: 50.0 mg/kg/injection, schedule: Q01DX009 (ip), vehicle: Klucel (hydroxypropylcellulose) (HPC) 98 % of control | [2] 95 % of control | dose: 100.0 mg/kg/injection, schedule: Q04DX003 (ip), vehicle: Klucel (hydroxypropylcellulose) (HPC) 104 % of control | dose: 200.0 mg/kg/injection, schedule: Q04DX003 (ip), vehicle: Klucel (hydroxypropylcellulose) (HPC) 114 % of control

O=C(C[n+]1ccccc1Br)c1cccc([N+](=O)[O-])c1
inactive: dose: 75.0 mg/kg/injection, schedule: Q01DX001 (ip), vehicle: other 100 % of control | dose: 150.0 mg/kg/injection, schedule: Q01DX001 (ip), vehicle: other 108 % of control

CCN(CCN)c1cccc(C)c1
inactive: dose: 100.0 mg/kg/injection, schedule: Q04DX003 (ip), vehicle: saline sonified 92 % of control

CN(C)c1ncnc2c1ncn2C1CCCO1 (configuration not stated)
inactive: dose: 25.0 mg/kg/injection, schedule: Q01DX Z (ip), vehicle: methylcellulose (MC) 97 % of control | dose: 50.0 mg/kg/injection, schedule: Q01DX Z (ip), vehicle: methylcellulose (MC) 92 % of control

CCCCOC(=O)C(C)OC(=O)Nc1ccccc1 (configuration not stated)
inactive: dose: 100.0 mg/kg/injection, schedule: Q01DX009 (sc), vehicle: olive oil, sesame oil, peanut oil 95 % of control | dose: 100.0 mg/kg/injection, schedule: Q04DX003 (sc), vehicle: olive oil, sesame oil, peanut oil 100 % of control | dose: 200.0 mg/kg/injection, schedule: Q01DX009 (sc), vehicle: olive oil, sesame oil, peanut oil 92 % of control | dose: 200.0 mg/kg/injection, schedule: Q04DX003 (sc), vehicle: olive oil, sesame oil, peanut oil 105 % of control | dose: 400.0 mg/kg/injection, schedule: Q01DX009 (sc), vehicle: olive oil, sesame oil, peanut oil 92 % of control | dose: 400.0 mg/kg/injection, schedule: Q04DX003 (sc), vehicle: olive oil, sesame oil, peanut oil 115 % of control

CC(=O)Nc1ccc(S(=O)(=O)OCCC#N)cc1
inactive: dose: 100.0 mg/kg/injection, schedule: Q04DX003 (ip), vehicle: saline with Tween-80 99 % of control | dose: 200.0 mg/kg/injection, schedule: Q04DX003 (ip), vehicle: saline with Tween-80 99 % of control | dose: 400.0 mg/kg/injection, schedule: Q04DX003 (ip), vehicle: saline with Tween-80 90 % of control
